# From ChEMBL document CHEMBL4507275, “Data for DCP probe BI-2545” (2021)
# Key:
# [1] = biological target: Serine/threonine-protein kinase 4 (Homo sapiens) (UniProt Q13043); settings: Compound concentration 1000.0 nM
# [2] = biological target: Serine/threonine-protein kinase N1 (Homo sapiens) (UniProt Q16512); settings: Compound concentration 1000.0 nM
# [3] = biological target: Non-receptor tyrosine-protein kinase TNK1 (Homo sapiens) (UniProt Q13470); settings: Compound concentration 1000.0 nM
# [4] = biological target: Serine/threonine-protein kinase pim-2 (Homo sapiens) (UniProt Q9P1W9); settings: Compound concentration 1000.0 nM
# [5] = system: Mast/stem cell growth factor receptor Kit (Homo sapiens), P10721 [D816H]; settings: Compound concentration 1000.0 nM
# [6] = biological target: Activin receptor type-1B (Homo sapiens) (UniProt P36896); settings: Compound concentration 1000.0 nM
# [7] = biological target: Tyrosine-protein kinase Fyn (Homo sapiens) (UniProt P06241); settings: Compound concentration 1000.0 nM
# [8] = biological target: Tyrosine-protein kinase ITK/TSK (Homo sapiens) (UniProt Q08881); settings: Compound concentration 1000.0 nM
# [9] = biological target: Mitogen-activated protein kinase kinase kinase kinase 3 (Homo sapiens) (UniProt Q8IVH8); settings: Compound concentration 1000.0 nM
# [10] = biological target: SRSF protein kinase 2 (Homo sapiens) (UniProt P78362); settings: Compound concentration 1000.0 nM
# [11] = system: Mast/stem cell growth factor receptor Kit (Homo sapiens), P10721 [V559D,T670I]; settings: Compound concentration 1000.0 nM
# [12] = biological target: Interleukin-1 receptor-associated kinase 4 (Homo sapiens) (UniProt Q9NWZ3); settings: Compound concentration 1000.0 nM
# [13] = system: Tyrosine-protein kinase ABL1 (Homo sapiens), P00519 [Q252H]; settings: Compound concentration 1000.0 nM
# [14] = system: Phosphatidylinositol 4,5-bisphosphate 3-kinase catalytic subunit alpha isoform (Homo sapiens), P42336 [C420R]; settings: Compound concentration 1000.0 nM
# [15] = biological target: High affinity nerve growth factor receptor (Homo sapiens) (UniProt P04629); settings: Compound concentration 1000.0 nM
# [16] = system: Phosphatidylinositol 4,5-bisphosphate 3-kinase catalytic subunit alpha isoform (Homo sapiens), P42336 [H1047L]; settings: Compound concentration 1000.0 nM
# [17] = biological target: D(4) dopamine receptor (Homo sapiens) (UniProt P21917); settings: Compound concentration 10.0 uM
# [18] = biological target: Interleukin-1 receptor-associated kinase 1 (Homo sapiens) (UniProt P51617); settings: Compound concentration 1000.0 nM
# [19] = biological target: Receptor-interacting serine/threonine-protein kinase 4 (Homo sapiens) (UniProt P57078); settings: Compound concentration 1000.0 nM
# [20] = biological target: Protein kinase C theta type (Homo sapiens) (UniProt Q04759); settings: Compound concentration 1000.0 nM
# [21] = biological target: NUAK family SNF1-like kinase 2 (Homo sapiens) (UniProt Q9H093); settings: Compound concentration 1000.0 nM
# [22] = biological target: Histamine H2 receptor (Homo sapiens) (UniProt P25021); settings: Compound concentration 10.0 uM
# [23] = biological target: Phosphorylase b kinase regulatory subunit alpha, liver isoform (Homo sapiens) (UniProt P46019); settings: Compound concentration 1000.0 nM
# [24] = biological target: SRSF protein kinase 1 (Homo sapiens) (UniProt Q96SB4); settings: Compound concentration 1000.0 nM
# [25] = biological target: Serine/threonine-protein kinase SIK1 (Homo sapiens) (UniProt P57059); settings: Compound concentration 1000.0 nM
# [26] = system: Epidermal growth factor receptor (Homo sapiens), P00533 [G719C]; settings: Compound concentration 1000.0 nM
# [27] = biological target: Serine/threonine-protein kinase 17A (Homo sapiens) (UniProt Q9UEE5); settings: Compound concentration 1000.0 nM
# [28] = biological target: Histamine H3 receptor (Homo sapiens) (UniProt Q9Y5N1); settings: Compound concentration 10.0 uM
# [29] = biological target: cGMP-dependent protein kinase 2 (Homo sapiens) (UniProt Q13237); settings: Compound concentration 1000.0 nM
# [30] = system: Tyrosine-protein kinase ABL1 (Homo sapiens), P00519 [T315I]; settings: Compound concentration 1000.0 nM
# [31] = biological target: Serine/threonine-protein kinase Nek1 (Homo sapiens) (UniProt Q96PY6); settings: Compound concentration 1000.0 nM
# [32] = biological target: Death-associated protein kinase 2 (Homo sapiens) (UniProt Q9UIK4); settings: Compound concentration 1000.0 nM
# [33] = biological target: Uncharacterized serine/threonine-protein kinase SBK3 (Homo sapiens) (UniProt P0C264); settings: Compound concentration 1000.0 nM
# [34] = biological target: Ribosomal protein S6 kinase alpha-3 (Homo sapiens) (UniProt P51812); settings: Compound concentration 1000.0 nM
# [35] = biological target: Phosphatidylinositol 4,5-bisphosphate 3-kinase catalytic subunit alpha isoform (Homo sapiens) (UniProt P42336); settings: Compound concentration 1000.0 nM
# [36] = biological target: Serine/threonine-protein kinase TAO2 (Homo sapiens) (UniProt Q9UL54); settings: Compound concentration 1000.0 nM
# [37] = biological target: Ribosomal protein S6 kinase alpha-5 (Homo sapiens) (UniProt O75582); settings: Compound concentration 1000.0 nM
# [38] = biological target: Serine/threonine-protein kinase PLK3 (Homo sapiens) (UniProt Q9H4B4); settings: Compound concentration 1000.0 nM
# [39] = biological target: Cyclin-dependent kinase 13 (Homo sapiens) (UniProt Q14004); settings: Compound concentration 1000.0 nM
# [40] = system: Epidermal growth factor receptor (Homo sapiens), P00533 [UNDEFINED MUTATION]; settings: Compound concentration 1000.0 nM
# [41] = biological target: Serine/threonine-protein kinase WNK4 (Homo sapiens) (UniProt Q96J92); settings: Compound concentration 1000.0 nM
# [42] = biological target: Misshapen-like kinase 1 (Homo sapiens) (UniProt Q8N4C8); settings: Compound concentration 1000.0 nM
# [43] = biological target: Mitogen-activated protein kinase kinase kinase 19 (Homo sapiens) (UniProt Q56UN5); settings: Compound concentration 1000.0 nM
# [44] = biological target: Phosphatidylinositol 5-phosphate 4-kinase type-2 gamma (Homo sapiens) (UniProt Q8TBX8); settings: Compound concentration 1000.0 nM
# [45] = biological target: G protein-coupled receptor kinase 3 (Homo sapiens) (UniProt P35626); settings: Compound concentration 1000.0 nM
# Sequence of Histamine H2 receptor (Homo sapiens) (P25021 whole entry, canonical isoform): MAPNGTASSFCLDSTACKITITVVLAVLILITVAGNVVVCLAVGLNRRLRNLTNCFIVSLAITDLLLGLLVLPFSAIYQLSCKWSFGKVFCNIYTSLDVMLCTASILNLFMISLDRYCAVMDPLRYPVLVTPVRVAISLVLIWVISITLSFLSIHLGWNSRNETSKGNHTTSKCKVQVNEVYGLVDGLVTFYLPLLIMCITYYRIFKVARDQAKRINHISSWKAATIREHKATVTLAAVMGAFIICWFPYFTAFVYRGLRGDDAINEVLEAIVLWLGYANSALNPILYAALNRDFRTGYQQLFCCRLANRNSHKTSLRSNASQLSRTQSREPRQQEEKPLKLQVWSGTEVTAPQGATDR
# Sequence of Mitogen-activated protein kinase kinase kinase 19 (Homo sapiens) (Q56UN5 whole entry): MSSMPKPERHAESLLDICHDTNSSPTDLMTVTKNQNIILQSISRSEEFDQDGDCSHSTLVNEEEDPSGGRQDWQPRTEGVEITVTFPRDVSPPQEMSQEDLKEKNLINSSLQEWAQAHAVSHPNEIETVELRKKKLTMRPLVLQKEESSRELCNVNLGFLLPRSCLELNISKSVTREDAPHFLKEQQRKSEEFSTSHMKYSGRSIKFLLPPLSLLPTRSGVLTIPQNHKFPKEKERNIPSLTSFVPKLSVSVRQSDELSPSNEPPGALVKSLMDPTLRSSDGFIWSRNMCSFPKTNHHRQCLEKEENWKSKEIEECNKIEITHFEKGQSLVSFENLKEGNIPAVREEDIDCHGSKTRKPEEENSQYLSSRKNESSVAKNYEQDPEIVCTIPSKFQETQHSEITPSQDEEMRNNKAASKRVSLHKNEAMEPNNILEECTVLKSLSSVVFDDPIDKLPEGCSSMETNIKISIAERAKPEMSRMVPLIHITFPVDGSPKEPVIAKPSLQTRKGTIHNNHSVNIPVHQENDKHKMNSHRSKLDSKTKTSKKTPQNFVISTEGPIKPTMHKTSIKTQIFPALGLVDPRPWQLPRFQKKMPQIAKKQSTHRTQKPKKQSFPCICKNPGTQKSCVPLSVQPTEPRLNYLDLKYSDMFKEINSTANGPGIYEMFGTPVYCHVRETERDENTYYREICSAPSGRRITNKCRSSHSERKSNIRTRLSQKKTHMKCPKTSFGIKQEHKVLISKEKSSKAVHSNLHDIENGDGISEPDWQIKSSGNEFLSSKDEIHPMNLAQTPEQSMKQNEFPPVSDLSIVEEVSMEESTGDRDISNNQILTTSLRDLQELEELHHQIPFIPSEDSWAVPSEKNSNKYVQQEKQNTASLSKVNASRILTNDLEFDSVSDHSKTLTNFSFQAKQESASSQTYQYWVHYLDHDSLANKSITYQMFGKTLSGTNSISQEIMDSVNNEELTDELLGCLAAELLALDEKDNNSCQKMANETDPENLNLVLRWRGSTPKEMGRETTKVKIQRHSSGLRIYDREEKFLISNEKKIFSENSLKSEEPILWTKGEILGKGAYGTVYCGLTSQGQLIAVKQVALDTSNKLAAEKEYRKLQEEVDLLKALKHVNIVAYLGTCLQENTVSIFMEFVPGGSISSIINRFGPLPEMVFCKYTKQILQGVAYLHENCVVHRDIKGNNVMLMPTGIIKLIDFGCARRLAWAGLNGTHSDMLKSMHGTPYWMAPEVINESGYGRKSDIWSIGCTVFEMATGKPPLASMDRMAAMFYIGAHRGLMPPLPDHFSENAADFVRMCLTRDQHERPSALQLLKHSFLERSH
# Sequence of Serine/threonine-protein kinase 4 (Homo sapiens) (Q13043 whole entry): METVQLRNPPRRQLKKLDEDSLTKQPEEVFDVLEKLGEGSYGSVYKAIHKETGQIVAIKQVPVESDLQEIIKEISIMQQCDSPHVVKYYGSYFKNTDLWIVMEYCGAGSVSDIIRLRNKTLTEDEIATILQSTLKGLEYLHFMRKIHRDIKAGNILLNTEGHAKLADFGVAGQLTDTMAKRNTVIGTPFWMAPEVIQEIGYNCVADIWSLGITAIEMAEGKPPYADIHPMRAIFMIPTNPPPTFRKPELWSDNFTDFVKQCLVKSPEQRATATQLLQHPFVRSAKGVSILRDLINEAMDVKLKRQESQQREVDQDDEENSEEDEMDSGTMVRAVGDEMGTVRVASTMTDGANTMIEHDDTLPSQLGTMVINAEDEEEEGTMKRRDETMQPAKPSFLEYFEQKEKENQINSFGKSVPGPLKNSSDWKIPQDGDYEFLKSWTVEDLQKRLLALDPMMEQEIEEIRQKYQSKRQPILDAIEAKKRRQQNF
# Sequence of SRSF protein kinase 1 (Homo sapiens) (Q96SB4 whole entry): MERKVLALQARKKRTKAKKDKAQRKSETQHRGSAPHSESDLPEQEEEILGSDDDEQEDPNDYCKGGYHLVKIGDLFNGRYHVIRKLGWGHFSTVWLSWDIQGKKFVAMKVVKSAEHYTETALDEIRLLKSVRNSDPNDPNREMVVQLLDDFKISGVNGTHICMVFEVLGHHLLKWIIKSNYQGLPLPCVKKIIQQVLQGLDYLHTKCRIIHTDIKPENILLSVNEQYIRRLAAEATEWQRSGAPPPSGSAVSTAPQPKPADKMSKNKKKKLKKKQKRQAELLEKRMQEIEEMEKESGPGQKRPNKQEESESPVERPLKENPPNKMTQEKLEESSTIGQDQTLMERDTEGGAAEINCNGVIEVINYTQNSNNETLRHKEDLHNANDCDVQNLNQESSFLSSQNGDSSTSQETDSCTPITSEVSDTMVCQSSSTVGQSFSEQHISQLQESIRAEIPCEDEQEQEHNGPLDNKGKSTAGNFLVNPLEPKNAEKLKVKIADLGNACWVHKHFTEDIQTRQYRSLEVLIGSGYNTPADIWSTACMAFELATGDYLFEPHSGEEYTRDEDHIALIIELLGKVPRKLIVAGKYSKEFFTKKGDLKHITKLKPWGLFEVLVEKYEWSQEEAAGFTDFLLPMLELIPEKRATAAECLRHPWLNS
# Sequence of Non-receptor tyrosine-protein kinase TNK1 (Homo sapiens) (Q13470 whole entry): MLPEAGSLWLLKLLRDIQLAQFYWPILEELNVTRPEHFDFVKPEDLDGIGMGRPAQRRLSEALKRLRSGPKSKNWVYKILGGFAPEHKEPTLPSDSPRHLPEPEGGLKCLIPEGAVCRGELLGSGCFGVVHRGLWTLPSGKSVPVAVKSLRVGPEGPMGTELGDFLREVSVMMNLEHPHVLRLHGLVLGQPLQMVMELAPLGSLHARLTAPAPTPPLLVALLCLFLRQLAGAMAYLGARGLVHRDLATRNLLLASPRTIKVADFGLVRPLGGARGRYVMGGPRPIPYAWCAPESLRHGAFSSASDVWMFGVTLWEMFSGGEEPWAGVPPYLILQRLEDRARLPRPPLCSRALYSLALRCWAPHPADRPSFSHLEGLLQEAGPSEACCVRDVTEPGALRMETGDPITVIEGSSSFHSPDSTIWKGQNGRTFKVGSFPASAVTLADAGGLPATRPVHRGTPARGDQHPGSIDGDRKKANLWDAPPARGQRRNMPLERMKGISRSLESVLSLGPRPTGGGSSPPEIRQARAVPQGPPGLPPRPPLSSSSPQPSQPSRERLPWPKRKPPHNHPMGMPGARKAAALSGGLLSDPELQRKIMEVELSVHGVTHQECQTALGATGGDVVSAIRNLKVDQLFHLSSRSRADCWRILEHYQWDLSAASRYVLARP
# Sequence of Uncharacterized serine/threonine-protein kinase SBK3 (Homo sapiens) (P0C264 whole entry): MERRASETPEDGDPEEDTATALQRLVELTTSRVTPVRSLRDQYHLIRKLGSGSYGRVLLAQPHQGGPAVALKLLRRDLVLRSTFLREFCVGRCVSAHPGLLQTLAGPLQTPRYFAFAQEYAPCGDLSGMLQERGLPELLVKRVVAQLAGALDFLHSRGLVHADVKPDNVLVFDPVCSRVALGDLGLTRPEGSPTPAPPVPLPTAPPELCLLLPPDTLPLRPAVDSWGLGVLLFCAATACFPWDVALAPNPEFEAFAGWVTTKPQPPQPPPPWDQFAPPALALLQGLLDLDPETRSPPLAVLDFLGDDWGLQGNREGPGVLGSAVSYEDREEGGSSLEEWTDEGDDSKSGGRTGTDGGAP
# Sequence of Serine/threonine-protein kinase 17A (Homo sapiens) (Q9UEE5 whole entry): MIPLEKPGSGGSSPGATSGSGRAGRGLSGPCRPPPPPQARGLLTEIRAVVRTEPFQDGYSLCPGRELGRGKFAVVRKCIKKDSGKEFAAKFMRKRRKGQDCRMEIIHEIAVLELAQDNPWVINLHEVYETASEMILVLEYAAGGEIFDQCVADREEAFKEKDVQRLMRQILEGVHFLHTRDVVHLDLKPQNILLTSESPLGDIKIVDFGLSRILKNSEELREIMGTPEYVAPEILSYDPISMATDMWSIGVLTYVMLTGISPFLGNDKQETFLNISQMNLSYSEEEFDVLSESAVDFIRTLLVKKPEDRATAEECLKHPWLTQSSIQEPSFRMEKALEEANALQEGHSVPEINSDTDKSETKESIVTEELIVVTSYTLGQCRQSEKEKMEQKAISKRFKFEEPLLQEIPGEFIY
# Sequence of Interleukin-1 receptor-associated kinase 4 (Homo sapiens) (Q9NWZ3 whole entry): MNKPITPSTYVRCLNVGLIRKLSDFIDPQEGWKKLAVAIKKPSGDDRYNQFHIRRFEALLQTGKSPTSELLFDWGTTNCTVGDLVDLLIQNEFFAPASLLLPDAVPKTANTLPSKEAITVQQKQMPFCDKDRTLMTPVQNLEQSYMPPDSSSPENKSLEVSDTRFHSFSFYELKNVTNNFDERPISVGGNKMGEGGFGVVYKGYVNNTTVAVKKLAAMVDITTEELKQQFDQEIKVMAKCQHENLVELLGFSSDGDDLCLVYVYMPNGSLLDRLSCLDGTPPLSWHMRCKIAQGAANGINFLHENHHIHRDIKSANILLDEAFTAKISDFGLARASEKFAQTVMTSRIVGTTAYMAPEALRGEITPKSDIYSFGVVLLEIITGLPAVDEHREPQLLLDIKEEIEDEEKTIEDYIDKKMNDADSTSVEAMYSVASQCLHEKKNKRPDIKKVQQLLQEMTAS
smiles,measurement,setting,value
O=C(NC[C@@H]1[C@H]2CN(C(=O)OCc3cc(C(F)(F)F)cc(C(F)(F)F)c3)C[C@@H]12)c1ccc2[nH]nnc2c1 [BI 2545],residual activity,[1],100%
same,residual activity,[2],100%
same,residual activity,[3],94%
same,residual activity,[4],100%
same,residual activity,[5],100%
same,residual activity,[6],100%
same,residual activity,[7],85%
same,residual activity,[8],100%
same,residual activity,[9],89%
same,residual activity,[10],100%
same,residual activity,[11],100%
same,residual activity,[12],100%
same,residual activity,[13],100%
same,residual activity,[14],95%
same,residual activity,[15],85%
same,residual activity,[16],100%
same,inhibition,[17],6.75%
same,residual activity,[18],98%
same,residual activity,[19],100%
same,residual activity,[20],100%
same,residual activity,[21],88%
same,inhibition,[22],28.1%
same,residual activity,[23],100%
same,residual activity,[24],81%
same,residual activity,[25],100%
same,residual activity,[26],100%
same,residual activity,[27],95%
same,inhibition,[28],-5.26%
same,residual activity,[29],82%
same,residual activity,[30],93%
same,residual activity,[31],44%
same,residual activity,[32],85%
same,residual activity,[33],100%
same,residual activity,[34],89%
same,residual activity,[35],74%
same,residual activity,[36],86%
same,residual activity,[37],100%
same,residual activity,[38],89%
same,residual activity,[39],85%
same,residual activity,[40],100%
same,residual activity,[41],89%
same,residual activity,[42],72%
same,residual activity,[43],100%
same,residual activity,[44],100%
same,residual activity,[45],90%
Cc1nccc(COC(=O)N2C[C@@H]3[C@@H](CNC(=O)c4ccc5[nH]nnc5c4)[C@@H]3C2)n1 [BI 3017],residual activity,[1],100%
same,residual activity,[2],100%
same,residual activity,[3],66%
same,residual activity,[4],0%
same,residual activity,[5],99%
same,residual activity,[6],92%
same,residual activity,[7],100%
same,residual activity,[8],100%
same,residual activity,[9],66%
same,residual activity,[10],77%
same,residual activity,[11],95%
same,residual activity,[12],87%
same,residual activity,[13],93%
same,residual activity,[14],97%
same,residual activity,[15],94%
same,residual activity,[16],79%
same,inhibition,[17],-0.15%
same,residual activity,[18],81%
same,residual activity,[19],98%
same,residual activity,[20],91%
same,residual activity,[21],100%
same,inhibition,[22],-0.15%
same,residual activity,[23],97%
same,residual activity,[24],80%
same,residual activity,[25],98%
same,residual activity,[26],100%
same,residual activity,[27],79%
same,inhibition,[28],9.03%
same,residual activity,[29],100%
same,residual activity,[30],95%
same,residual activity,[31],100%
same,residual activity,[32],82%
same,residual activity,[33],54%
same,residual activity,[34],86%
same,residual activity,[35],92%
same,residual activity,[36],91%
same,residual activity,[37],95%
same,residual activity,[38],73%
same,residual activity,[39],82%
same,residual activity,[40],87%
same,residual activity,[41],100%
same,residual activity,[42],100%
same,residual activity,[43],90%
same,residual activity,[44],100%
same,residual activity,[45],70%
